Source: US20140303092A1 (CHIMERIX, INC., priority 2011, published 2014)

Assay: Study HDP-CDV-201: safety and tolerability (adverse events, laboratory abnormalities, discontinuations)
Type: in vivo, human (adult allogeneic HSCT recipients)
Experimental: Clinical Studies of HDP-CDV were performed and described in detail in the following Examples. For example, HDP-CDV-201 is a placebo-controlled, dose-escalating trial in HSCT CMV (R+) recipients, evaluating the ability of HDP-CDV to prevent or control CMV infection was carried out. Five cohorts were established in which participants or subjects received either placebo or the HDP-CDV orally, in doses ranging from 40 mg weekly (QW) to 200 mg twice weekly (BIW). Subjects who were post-HSCT were enrolled at the time of engraftment and randomized to HDP-CDV or placebo (3 to 1 ratio) and received blinded therapy until approximately 100 day post-transplantation. HDP-CDV doses were 40 mg QW, 100 mg QW, 200 mg QW, 200 mg BIW and 100 mg BIW. Escalation to the next dose was decided by the data monitoring committee after review of the safety data from the previous Cohort. Subjects who developed CMV disease or CMV infection requiring pre-emptive therapy with local standard of care were discontinued from blinded therapy and followed for 4 weeks. Subjects who completed treatment with blinded therapy were followed for 8 weeks post-therapy.
Data from Study HDP-CDV-201 also provided characterization of the safety and tolerability profile of HDP-CDV when administered for the prevention or control of CMV infection in high risk (R^+) post-HSCT adult subjects.
The Safety population (SAFETY) included all randomized subjects who took at least one dose of study treatment. This population was used to summarize safety outcomes based on the treatment actually received, in cases where a subject was treated contrary to the randomization schedule.
The safety and tolerability profile of HDP-CDV, including subject demographics and Baseline characteristics; the AE profile; and laboratory abnormalities of interest were analyzed in the cohorts followed in this investigation.
Subjects completing the treatment period received a full course of study medication; those completing the entire study attended visits through 8 weeks of follow up. Subjects who discontinued treatment may have done so for protocol specified reasons (e.g. development of clinically significant CMV infection requiring preemptive treatment with excluded anti-CMV medications) or for other reasons (e.g., withdrawal, adverse events, loss to follow-up). The disposition of subjects in Study HDP-CDV-201 during the double-blind, placebo-controlled treatment period (through Week 11) is listed by dosing Cohort in TABLE 23.
Adverse events were examined by severity to ensure that all safety signals were identified in this study population. Because of the frequency of events in HSCT recipients, particular attention was given to evaluation of Grade 3 […], 4 (severe), and 5 (fatal) adverse events.
Only those preferred terms for which at least one Grade 3 or higher event was experienced in any treatment group are listed. Cytomegalovirus-related AEs are excluded from this analysis.
HDP-CDV is a lipid conjugate of CDV. Because CDV is known to have adverse effects on renal function and bone marrow, decreased GFR and persistent neutropenia were identified as AEs of special interest. Key renal and hematological (TABLE 30) laboratory parameters were measured and listed below by Study HDP-CDV-201 treatment groups. TABLE 30 includes abnormal levels of serum creatinine, neutrophils, platelets, WBCs, and hemoglobin and includes data at Screening and during the treatment period.
A common metric for unit based dosing of medications is by weight (mg/kg). When the distribution of weights was examined for all subjects participating in the study, the median was 78 kg and the lower 25th percentile weight was approximately 65 kg, which translates to a cut-off of ˜3 mg/kg for a 200 mg total weekly dose. Based upon this approach, a cut-off of 3 mg/kg was used to assess the frequency of diarrhea and associated GI AEs reported for the subjects in Cohorts 3 or 4a (TABLE 40).

## CCCCCCCCCCCCCCCCOCCCOP(=O)(O)COC(CO)Cn1ccc(N)nc1=O (stereo not drawn) [HDP-CDV]
200 mg BIW
  TEAE Staphylococcal Bacteremia, Grade 4: 0
  TEAE Staphylococcal Bacteremia, Grade 5: 0
  TEAE Thrombocytopenia, Frequency: 5 (16.7%)
  TEAE Thrombocytopenia, Grade 2: 2 (6.7%)
  TEAE Thrombocytopenia, Grade 3: 0
  TEAE Thrombocytopenia, Grade 4: 3 (10.0%)
  TEAE Thrombocytopenia, Grade 5: 0
  TEAE Vomiting, Frequency: 8 (26.7%)
  TEAE Vomiting, Grade 2: 4 (13.3%)
  TEAE Vomiting, Grade 3: 0
  TEAE Vomiting, Grade 4: 0
  TEAE Vomiting, Grade 5: 0
  subjects requiring treatment with steroids during the study: 83%
200 mg BIW (8 of 30)
  proportion of subjects with Grade 3 or higher ALT (>5×ULN): 27.6%
200 mg BIW not tolerable
  dose limiting toxicity: Diarrhea
200 mg BIW, n = 30
  Subjects Reporting Diarrhea as an AE: 21 (70.0%)
200 mg BIW, active treatment period
  Discontinuation: Death: 3 (10%) Subject n (%)
200 mg BIW, active treatment period through Week 11
  Discontinuation: Adverse event: 13 (43.3%) Subject n (%)
200 mg QW
  TEAE ALT increased, Frequency: 2 (5.1%)
  TEAE ALT increased, Grade 2: 1 (2.6%)
  TEAE ALT increased, Grade 3: 1 (2.6%)
  TEAE ALT increased, Grade 4: 0
  TEAE ALT increased, Grade 5: 0
  TEAE AML, Recurrent, Frequency: 0
  TEAE AML, Recurrent, Grade 2: 0
  TEAE AML, Recurrent, Grade 3: 0
  TEAE AML, Recurrent, Grade 4: 0
  TEAE AML, Recurrent, Grade 5: 0
  TEAE AST increased, Frequency: 1 (2.6%)
  TEAE AST increased, Grade 2: 1 (2.6%)
  TEAE AST increased, Grade 3: 0
  TEAE AST increased, Grade 4: 0
  TEAE AST increased, Grade 5: 0
  TEAE Abdominal pain, Frequency: 5 (12.8%)
  TEAE Abdominal pain, Grade 2: 1 (2.6%)
  TEAE Abdominal pain, Grade 3: 1 (2.6%)
  TEAE Abdominal pain, Grade 4: 0
  TEAE Abdominal pain, Grade 5: 0
  TEAE Acute GVHD, Frequency: 13 (33.3%)
  TEAE Acute GVHD, Grade 2: 5 (12.8%)
  TEAE Acute GVHD, Grade 3: 4 (10.3%)
  TEAE Acute GVHD, Grade 4: 2 (5.1%)
  TEAE Acute GVHD, Grade 5: 1(2.6%)
  TEAE Arthralgias, Frequency: 1 (2.6%)
  TEAE Arthralgias, Grade 2: 0
  TEAE Arthralgias, Grade 3: 0
  TEAE Arthralgias, Grade 4: 0
  TEAE Arthralgias, Grade 5: 0
  TEAE Back Pain, Frequency: 2 (5.1%)
  TEAE Back Pain, Grade 2: 2 (5.1%)
  TEAE Back Pain, Grade 3: 0
  TEAE Back Pain, Grade 4: 0
  TEAE Back Pain, Grade 5: 0
  TEAE Decreased appetite, Frequency: 3 (7.7%)
  TEAE Decreased appetite, Grade 2: 1 (2.6%)
  TEAE Decreased appetite, Grade 3: 0
  TEAE Decreased appetite, Grade 4: 0
  TEAE Decreased appetite, Grade 5: 0
  TEAE Diarrhea, Frequency: 13 (33.3%)
  TEAE Diarrhea, Grade 2: 5 (12.8%)
  TEAE Diarrhea, Grade 3: 2 (5.1%)
  TEAE Diarrhea, Grade 4: 0
  TEAE Diarrhea, Grade 5: 0
  TEAE Fatigue, Frequency: 5 (12.8%)
  TEAE Fatigue, Grade 2: 0
  TEAE Fatigue, Grade 3: 1 (2.6%)
  TEAE Fatigue, Grade 4: 0
  TEAE Fatigue, Grade 5: 0
  TEAE GGT Increased, Frequency: 0
  TEAE GGT Increased, Grade 2: 0
  TEAE GGT Increased, Grade 3: 0
  TEAE GGT Increased, Grade 4: 0
  TEAE GGT Increased, Grade 5: 0
  TEAE Generalized oedema, Frequency: 0
  TEAE Generalized oedema, Grade 2: 0
  TEAE Generalized oedema, Grade 3: 0
  TEAE Generalized oedema, Grade 4: 0
  TEAE Generalized oedema, Grade 5: 0
  TEAE Hyperbilirubinaemia, Frequency: 3 (7.7%)
  TEAE Hyperbilirubinaemia, Grade 2: 1 (2.6%)
  TEAE Hyperbilirubinaemia, Grade 3: 0
  TEAE Hyperbilirubinaemia, Grade 4: 1 (2.6%)
  TEAE Hyperbilirubinaemia, Grade 5: 0
  TEAE Hyperglycaemia, Frequency: 1 (2.6%)
  TEAE Hyperglycaemia, Grade 2: 0
  TEAE Hyperglycaemia, Grade 3: 1 (2.6%)
  TEAE Hyperglycaemia, Grade 4: 0
  TEAE Hyperglycaemia, Grade 5: 0
  TEAE Hyperkalemia, Frequency: 1 (2.6%)
  TEAE Hyperkalemia, Grade 2: 0
  TEAE Hyperkalemia, Grade 3: 0
  TEAE Hyperkalemia, Grade 4: 0
  TEAE Hyperkalemia, Grade 5: 0
  TEAE Hypocalcaemia, Frequency: 0
  TEAE Hypocalcaemia, Grade 2: 0
  TEAE Hypocalcaemia, Grade 3: 0
  TEAE Hypocalcaemia, Grade 4: 0
  TEAE Hypocalcaemia, Grade 5: 0
  TEAE Hypokalaemia, Frequency: 5 (12.8%)
  TEAE Hypokalaemia, Grade 2: 2 (5.1%)
  TEAE Hypokalaemia, Grade 3: 0
  TEAE Hypokalaemia, Grade 4: 0
  TEAE Hypokalaemia, Grade 5: 0
  TEAE Hyponatraemia, Frequency: 7 (17.9%)
  TEAE Hyponatraemia, Grade 2: 2 (5.1%)
  TEAE Hyponatraemia, Grade 3: 2 (5.1%)
  TEAE Hyponatraemia, Grade 4: 0
  TEAE Hyponatraemia, Grade 5: 0
  TEAE LFT Abnormal, Frequency: 2 (5.1%)
  TEAE LFT Abnormal, Grade 2: 0
  TEAE LFT Abnormal, Grade 3: 0
